According to US5519034A, “Tetraisoquinoline compounds which have useful pharmaceutical utility” (The Boots Company PLC, priority 1991, dated 1996):
pKi: −log10 of the molar value. Where two headings read alike, the source gives them in different places.

Tests used:
D2 dopamine receptors = molecular target: T1, D2 dopamine receptors (Rattus norvegicus, UniProt P61169); assay: D2 dopamine receptor binding: inhibition of tritiated (S)-sulpiride binding, rat striatal samples; parameters: species or system rat (male Charles River CD rats); conditions: for pKi: rat striatum, tritiated (S)-sulpiride; for Ki for D2 / Ki for D1: ratio to two significant figures
T1 construct: Striatal samples from the brains of male Charles River CD rats; from tissue; host or cells: striatum of male Charles River CD rats (washed membrane pellet)
T1 sequence (P61169 whole entry): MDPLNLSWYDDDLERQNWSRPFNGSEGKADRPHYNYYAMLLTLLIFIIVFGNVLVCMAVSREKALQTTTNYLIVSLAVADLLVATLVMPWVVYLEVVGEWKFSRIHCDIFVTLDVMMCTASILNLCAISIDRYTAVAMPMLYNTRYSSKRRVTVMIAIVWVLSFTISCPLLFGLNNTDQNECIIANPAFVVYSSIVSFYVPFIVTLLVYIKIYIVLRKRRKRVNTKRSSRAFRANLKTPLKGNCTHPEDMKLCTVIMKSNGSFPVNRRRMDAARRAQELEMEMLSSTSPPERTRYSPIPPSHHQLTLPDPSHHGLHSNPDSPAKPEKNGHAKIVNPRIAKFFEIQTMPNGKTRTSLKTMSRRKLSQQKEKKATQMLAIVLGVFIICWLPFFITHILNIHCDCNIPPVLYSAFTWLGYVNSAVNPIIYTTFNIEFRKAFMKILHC
Description: (§1) Striatal samples from the brains of male Charles River CD rats weighing between 140-250 g were homogenised in ice-cold 50 mM Tris-HCl buffer (pH 7.4 when measured at 25° C. for D1 binding assays and pH 7.7 when measured at 25° C. for D2 binding assays) and centrifuged for 10 minutes (at 21,000 g when used for D1binding assay and 40,000 g when used for D2binding assays). The pellet was resuspended in the same buffer, again centrifuged and the final pellet stored at -80° C. Before each test the pellet was resuspended in 50 mM Tris-HCl buffer containing 120 mM NaCl, 5 mM KCl, 2 mM CaCl2 and 1 mM MgCl2 at pH 7.4 for the D1 binding assays and at pH 7.7 with the addition of 6 mM ascorbic acid for the D2 binding assays. Aliquots of this suspension were then added to tubes containing the ligand and either the compound under test or buffer. For the D1 binding assays the ligand was tritiated SCH 23390 and the mixture was incubated at 37° C. for 30 minutes before the incubation was terminated by rapid filtration. For the D2 binding assays the ligand was tritiated (S)-sulpiride and the mixture was incubated at 4° C. for 40 minutes before the incubation was terminated by rapid filtration. Non-specific binding was determined experimentally by the addition of saturating concentrations of chloropromazine or spiroperidol for D1 and D2 receptors respectively.
(§2) The filters were washed with ice-cold Tris-HCl buffer and dried. The filters were punched out on to vials containing scintillation fluid and were left for about 20 hours before being counted by scintillation spectrophotometry. Displacement curves were produced over a range of concentrations of the compound under test and the concentration which gave a 50% inhibition of specific binding (IC50) obtained from the curve. The inhibition coefficient Ki was then calculated using the formula [formula] in which [ligand] is the concentration of the tritiated ligand used and KD is the equilibrium dissociation constant for the ligand.
(§3) In some cases Ki values for D2 binding were estimated from single concentration data by the application of the Langmuir adsorption isotherm equation. These cases are indicated by an "E" in the last two columns of Table I. In other cases it was not possible to determine or estimate the Ki and the Ki value is given as greater than (>) that which would result from the application of the above formula to the highest concentration which displaced ≤50% of the ligand.

D1 dopamine receptors = molecular target: T2, D1 dopamine receptors (Rattus norvegicus, UniProt P18901); assay: D1 dopamine receptor binding: inhibition of tritiated SCH 23390 binding, rat striatal samples; parameters: species or system rat (male Charles River CD rats); conditions: rat striatum, tritiated SCH 23390, pH 7.4, 37° C., 30 minutes
T2 construct: Striatal samples from the brains of male Charles River CD rats; from tissue; host or cells: striatum of male Charles River CD rats (washed membrane pellet)
T2 sequence (P18901 whole entry): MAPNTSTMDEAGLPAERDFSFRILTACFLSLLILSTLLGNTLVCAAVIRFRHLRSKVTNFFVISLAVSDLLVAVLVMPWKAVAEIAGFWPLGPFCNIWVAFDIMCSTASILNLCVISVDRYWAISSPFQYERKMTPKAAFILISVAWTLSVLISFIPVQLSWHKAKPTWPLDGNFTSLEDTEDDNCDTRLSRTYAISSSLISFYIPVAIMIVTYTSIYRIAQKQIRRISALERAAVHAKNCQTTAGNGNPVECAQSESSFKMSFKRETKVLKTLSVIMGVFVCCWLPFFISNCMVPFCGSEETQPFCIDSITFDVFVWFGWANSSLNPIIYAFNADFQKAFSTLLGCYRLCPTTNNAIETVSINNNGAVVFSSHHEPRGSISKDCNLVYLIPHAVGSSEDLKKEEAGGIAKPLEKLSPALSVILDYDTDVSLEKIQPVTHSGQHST
Description: as §1, §2, §3

[1] = pH 7.7, 4° C., 40 minutes, > = from highest concentration which displaced ≤50% of the ligand, read-out: Ki for D2 binding
[2] = estimated from single concentration data by Langmuir adsorption isotherm equation, read-out: Ki for D2 binding (marked E)

Row | SMILES | pKi (D2 dopamine receptors; [1]) | Ki for D2 / Ki for D1 (D2 dopamine receptors) | pKi (D1 dopamine receptors) | pKi (D2 dopamine receptors; [2])
1 | COc1cc2c(cc1O)C(C1(c3ccccc3)CCCC1)N(C)CC2 (stereo not drawn) [Example 48] | – | – | 7.03 | 5.52
2 | CN1CCc2cc(O)c(O)cc2C1C1(c2cccc(Cl)c2)CCC1 (stereo not drawn) [Example 33, 1-[1-(3-chlorophenyl)cyclobutyl]-6,7-dihydroxy-2-methyl-1,2,3,4-tetrahydroisoquinoline] | 4.64 | 350 | 7.19 | –
3 | CN1CCc2cc(O)c(O)cc2C1C1(c2ccc(O)cc2)CCCC1 (stereo not drawn) [Example 19, 6,7-dihydroxy-1-[1-(4-hydroxyphenyl)cyclopentyl]-2-methyl-1,2,3,4-tetrahydroisoquinoline] | – | – | 6.72 | 5.15
4 | CN1CCc2cc(O)c(O)cc2C1C1(c2ccc(Cl)cc2)CCC1 (stereo not drawn) [Example 50, 1-[1-(4-chlorophenyl)cyclobutyl]-6,7-dihydroxy-2-methyl-1,2,3,4-tetrahydroisoquinoline] | 5.82 | 60 | 7.60 | –
5 | CN1CCc2cc(O)c(O)cc2C1C1(c2ccccc2Br)CCC1 (stereo not drawn) [Example 1, 1-[1-(2-bromophenyl)cyclobutyl]-6,7-dihydroxy-2-methyl-1,2,3,4-tetrahydroisoquinoline] | 6.00 | 250 | 8.40 | –
6 | CN1CCc2cc(O)c(O)cc2C1C1(c2ccccc2Cl)CCC1 (stereo not drawn) [Example 2, 1-[1-(2-chlorophenyl)cyclobutyl]-6,7-dihydroxy-2-methyl-1,2,3,4-tetrahydroisoquinoline] | 4.92 | 1700 | 8.14 | –
7 | CN1CCc2cc(F)c(O)cc2C1C1(c2ccc(Cl)cc2)CCC1 (stereo not drawn) [Example 5, 1-[1-(4-chlorophenyl)cyclobutyl]-6-fluoro-7-hydroxy-2-methyl-1,2,3,4-tetrahydroisoquinoline] | 4.49 | 3900 | 8.08 | –
8 | COc1cc2c(cc1O)C(C1(c3ccc(OC(F)(F)F)cc3)CCC1)N(C)CC2 (stereo not drawn) [Example 72, 7-hydroxy-6-methoxy-2-methyl-1-[1-(4-trifluoromethoxyphenyl)cyclobutyl]-1,2,3,4-tetrahydroisoquinoline] | 5.02 | 200 | 7.33 | –
9 | CN1CCc2cc(Cl)c(O)cc2C1C1(c2ccccc2)CCC1 (single isomer, unassigned; (-)) [Example 59, (-)-6-chloro-7-hydroxy-2-methyl-1-(1-phenylcyclobutyl)-1,2,3,4-tetrahydroisoquinoline] | 5.49 | 620 | 8.28 | –
10 | CN1CCc2ccc(O)cc2C1C1(c2ccc(Cl)cc2)CCC1 (stereo not drawn) [Example 51, 1-[1-(4-chlorophenyl)cyclobutyl]-7-hydroxy-2-methyl-1,2,3,4-tetrahydroisoquinoline] | < 6.30 | > 38 | 7.89 | –
11 | COc1cc2c(cc1O)C(C1(c3ccccc3)CCCCC1)N(C)CC2 (stereo not drawn) [Example 36, 7-hydroxy-6-methoxy-2-methyl-1-(1-phenylcyclohexyl)-1,2,3,4-tetrahydroisoquinoline] | 5.36 | 71 | 7.21 | –
12 | CN1CCc2cc([N+](=O)[O-])c(O)cc2C1C1(c2ccccc2)CCC1 (stereo not drawn) [Example 57, 7-hydroxy-2-methyl-6-nitro-1-(1-phenylcyclobutyl)-1,2,3,4-tetrahydroisoquinoline] | < 5.30 | > 6.5 | 6.11 | –
13 | CN1CCc2cc(O)c(O)cc2C1C1(c2ccc(Cl)cc2Cl)CCC1 (stereo not drawn) [Example 46] | 5.92 | 180 | 8.18 | –
14 | COCCN1CCc2cc(OC)c(O)cc2C1C1(c2ccccc2Cl)CC1 (stereo not drawn) [Example 75, 1-[1-(2-chlorophenyl)cyclopropyl]-7-hydroxy-6-methoxy-2-(2-methoxyethyl)-1,2,3,4-tetrahydroisoquinoline] | < 5.30 | > 33 | 6.82 | –
15 | CN1CCc2cc(O)c(O)cc2C1C1(c2ccccc2)CC(C)(C)C1 (stereo not drawn) [Example 21, 6,7-dihydroxy-2-methyl-1-(3,3-dimethyl-1-phenylcyclobutyl)-1,2,3,4-tetrahydroisoquinoline] | < 5.30 | > 25 | 6.70 | –
16 | C=CCN1CCc2cc(O)c(O)cc2C1C1(c2ccc(Cl)cc2)CCC1 (stereo not drawn) [Example 67, 2-allyl-1-[1-(4-chlorophenyl)cyclobutyl]-6,7-dihydroxy-1,2,3,4-tetrahydroisoquinoline] | – | – | 7.28 | 5.15
17 | CN1CCc2cc(O)c(O)cc2C1C1(c2ccc(Cl)c(Cl)c2)CCC1 (stereo not drawn) [Example 18, 1-[1-(3,4-dichlorophenyl)cyclobutyl]-6,7-dihydroxy-2-methyl-1,2,3,4-tetrahydroisoquinoline] | 5.36 | 53 | 7.08 | –
18 | CN1CCc2cc(O)c(O)cc2C1C1(c2ccc(-c3ccccc3)cc2)CCC1 (stereo not drawn) [Example 78, 6,7-dihydroxy-2-methyl-1-[1-(4-biphenylyl)cyclobutyl]-1,2,3,4-tetrahydroisoquinoline] | 6.26 | 5.9 | 7.03 | –

The next compounds have a higher pKi (D1 dopamine receptors) than those just listed; values first:

Row | pKi (D2 dopamine receptors; [1]) | Ki for D2 / Ki for D1 (D2 dopamine receptors) | pKi (D1 dopamine receptors) | pKi (D2 dopamine receptors; [2]) | SMILES
19 | 6.07 | 610 | 8.85 | – | COc1cc2c(cc1O)C(C1(c3cccc4ccccc34)CC1)N(C)CC2 (stereo not drawn) [Example 43, 7-hydroxy-6-methoxy-2-methyl-1-[1-(1-naphthyl)cyclopropyl]-1,2,3,4-tetrahydroisoquinoline]
20 | 5.24 | 2800 | 8.68 | – | COc1cc2c(cc1O)C(C1(c3ccccc3Cl)CCC1)N(C)CC2 (stereo not drawn) [Example 69, 1-[1-(2-chlorophenyl)cyclobutyl]-7-hydroxy-6-methoxy-2-methyl-1,2,3,4-tetrahydroisoquinoline]
21 | 6.39 | 1100 | 9.42 | – | CN1CCc2cc(F)c(O)cc2C1C1(c2ccccc2Cl)CC1 (single isomer, unassigned; (+)) [Example 62, (+)-1-[1-(2-chlorophenyl)cyclopropyl]-6-fluoro-7-hydroxy-2-methyl-1,2,3,4-tetrahydroisoquinoline]
22 | 5.31 | 2700 | 8.74 | – | COc1cc2c(cc1O)C(C1(c3cccc4c3OCC4)CC1)N(C)CC2 (stereo not drawn) [Example 82, 1-[1-(2,3-dihydrobenzo[b]furan-7-yl)cyclopropyl]-7-hydroxy-6-methoxy-2-methyl-1,2,3,4-tetrahydroisoquinoline]
23 | 6.03 | 780 | 8.92 | – | Cc1cc2c(cc1O)C(C1(c3ccccc3Cl)CC1)N(C)CC2 (stereo not drawn) [Example 79, 1-[1-(2-chlorophenyl)cyclopropyl]-7-hydroxy-2,6-dimethyl-1,2,3,4-tetrahydroisoquinoline]
24 | 5.72 | 950 | 8.70 | – | COc1cc2c(cc1O)C(C1(c3ccccc3Br)CCC1)N(C)CC2 (stereo not drawn) [Example 68, 1-[1-(2-bromophenyl)cyclobutyl]-7-hydroxy-6-methoxy-2-methyl-1,2,3,4-tetrahydroisoquinoline]
25 | 6.05 | 3200 | 9.55 | – | COc1cc2c(cc1O)C(C1(c3ccccc3Cl)CC1)N(C)CC2 (single isomer, unassigned; (+)) [Example 77, (+)-1-[1-(2-chlorophenyl)cyclopropyl]-7-hydroxy-6-methoxy-2-methyl-1,2,3,4-tetrahydroisoquinoline]
26 | 5.74 | 950 | 8.72 | – | CN1CCc2cc(F)c(O)cc2C1C1(c2ccc(Cl)cc2Cl)CCC1 (stereo not drawn) [Example 9, 1-[1-(2,4-dichlorophenyl)cyclobutyl]-6-fluoro-7-hydroxy-2-methyl-1,2,3,4-tetrahydroisoquinoline]
27 | 6.15 | 510 | 8.85 | – | CN1CCc2ccc(O)cc2C1C1(c2ccccc2Cl)CC1 (stereo not drawn) [Example 12, 1-(1-(2-chlorophenyl)cyclopropyl)-7-hydroxy-2-methyl-1,2,3,4-tetrahydroisoquinoline]
28 | 5.74 | 1200 | 8.82 | – | CSc1ccccc1C1(C2c3cc(O)c(O)cc3CCN2C)CCC1 (stereo not drawn) [Example 71, 6,7-dihydroxy-2-methyl-1-[1-(2-methylthiophenyl)cyclobutyl]-1,2,3,4-tetrahydroisoquinoline]
